According to patent US20050009813A1 (priority 2001, published 2005):
Where “and” joins values, the source holds several entries; their conditions need not be identical. Equal values may be shown once. Where a name gives a salt, the structure may show the parent alone.

Columns and labels:
[1] = tested on: behavioural despair (acquired immobility); assay: Forced Swimming Test (Porsolt Swimming Test) on rats; format: in vivo, rat (Sprague Dawley); conditions: for Acquired Immobility (group mean value in minutes ± standard dev.): three administrations, 5 min test; for Acquired Immobility (group mean value in minutes ± standard dev.) / Change relative to control group (acquired immobility): rat, SD strain
Procedure: To verify whether this MAO-A-inhibitory action in vivo is relevant, deoxypeganine was tested in the “Forced Swimming Test” on rats (R. D. Porsolt et al., Nature 1977; 266(5604): 730-732). […] The time spent with attempts at escape until the animals fall into this psychomotorical inactivation (considered to be a surrogate for depression) is measured; prolonged activity corresponds to antidepressive action.
In the concrete case, […], about 6 weeks old (strain Sprague Dawley); acquired from Charles River UK Ltd.) were divided into 7 groups with 10 animals each. On the first day, after termination of the habituation phase, each animal was placed for 10 minutes in a cylindrical vessel filled about 15 cm high with 25°-warm water; this was followed, after one hour, 19 hours, and 23 hours, by three oral administrations of (depending on the group) either negative control (water), 15 mg/kg positive control (imipramine.HCl), or deoxypeganine.HCl in dosages of 1.0, 2.5, 7.5, 15.0 or 22.5 mg/kg of bodyweight. The volume, administered with the aid of a gastric tube, was in each case 5 ml/kg of bodyweight. One hour after the third of these treatments, each animal was again placed in the vessel for exactly 5 minutes and the time spent in minimal mobility was measured.

psychomotoric activation = assay: Open Field Paradigma; format: in vivo, Sprague-Dawley rats; conditions: treatment for 2 weeks, daily doses of 2.5 to 22.5 mg/kg
Source text: Since such results can in principle also be obtained by psychomotorically activating substances which have no anti-depressive action, the effect of deoxypeganine was also examined, with the same dose range, in the so-called Open Field Paradigma. Here one makes use of the fact that it is stressful for rats to stay in an open, bright area, and therefore such situations are avoided by the rats if possible.

[2] = tested on: cholinergic memory deficits; assay: Compensation of cholinergic memory deficits in rats with partially destroyed central cholinergic pathways; format: in vivo
Source text: It can be inferred therefrom that the effect observable in the swimming test reaches its maximum at a fraction of the dose necessary for maximal activation of the cholinergic system, which according to the state of the art could not be reckoned with.

Monoamino oxidase B = molecular target: T1, Monoamino oxidase B (Rattus norvegicus, UniProt P19643); assay: Inhibition of monoamino oxidase B
T1 sequence (P19643 1-520): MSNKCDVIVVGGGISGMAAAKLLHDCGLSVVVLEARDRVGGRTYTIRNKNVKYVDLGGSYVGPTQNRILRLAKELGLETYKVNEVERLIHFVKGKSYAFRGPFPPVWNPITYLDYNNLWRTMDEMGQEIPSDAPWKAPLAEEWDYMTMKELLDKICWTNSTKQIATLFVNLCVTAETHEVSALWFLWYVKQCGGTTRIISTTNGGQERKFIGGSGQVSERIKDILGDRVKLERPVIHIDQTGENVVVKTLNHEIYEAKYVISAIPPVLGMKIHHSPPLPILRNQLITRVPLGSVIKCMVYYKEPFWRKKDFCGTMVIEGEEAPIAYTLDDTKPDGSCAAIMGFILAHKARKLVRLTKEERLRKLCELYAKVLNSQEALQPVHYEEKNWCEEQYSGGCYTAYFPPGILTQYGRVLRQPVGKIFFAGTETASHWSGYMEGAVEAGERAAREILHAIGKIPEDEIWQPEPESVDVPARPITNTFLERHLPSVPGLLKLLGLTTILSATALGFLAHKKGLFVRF

[3] = molecular target: T2, monoamino oxidase A from rat brain (Rattus norvegicus, UniProt P21396); assay: Inhibition of monoamino oxidase A from rat brain, [3H]serotonine substrate (Medvedev et al.); format: biochemical, rat (Wistar strain); conditions: rat brain MAO-A; 95 μM [3H]serotonine; 1% DMSO in 20 mM potassium dihydrogenphosphate buffer pH 7.4; 10 nM to 10 μM; read-out: semi-maximal inhibitory action (IC50), monoamino oxidase A
T2 sequence (P21396 1-526): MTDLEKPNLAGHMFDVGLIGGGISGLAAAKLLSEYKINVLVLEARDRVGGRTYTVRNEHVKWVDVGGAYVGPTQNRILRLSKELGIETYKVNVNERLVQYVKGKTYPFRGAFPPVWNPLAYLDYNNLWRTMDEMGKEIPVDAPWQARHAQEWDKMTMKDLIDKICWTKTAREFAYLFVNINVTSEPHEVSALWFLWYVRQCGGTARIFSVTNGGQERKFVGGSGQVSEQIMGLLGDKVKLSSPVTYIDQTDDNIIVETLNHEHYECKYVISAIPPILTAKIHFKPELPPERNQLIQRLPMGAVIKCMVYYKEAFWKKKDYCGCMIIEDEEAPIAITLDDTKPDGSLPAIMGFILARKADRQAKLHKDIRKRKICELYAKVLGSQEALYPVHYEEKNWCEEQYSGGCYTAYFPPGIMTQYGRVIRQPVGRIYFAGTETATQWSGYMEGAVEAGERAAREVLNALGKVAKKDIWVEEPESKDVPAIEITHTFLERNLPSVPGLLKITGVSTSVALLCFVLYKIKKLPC
Procedure: The inhibitory action of deoxypeganine in respect of monoamino oxidase A from rat brain (Wistar strain) was measured in the concentration range of from 10 nM to 10 μM according to the method described by Medvedev et al. (Biochem Pharmacol 1994; 47(2): 303-308) and compared with clorogyline as the positive control, whereby in both cases 95 μM [^3H]serotonine in a solution of 1% dimethylsulfoxide in 20 mM of potassium dihydrogenphosphate buffer pH 7.4 served as substrate.

Cl.c1ccc2c(c1)CN1CCCC1=N2 [deoxypeganine hydrochloride]
Acquired Immobility (group mean value in minutes ± standard dev.) ([1]; 1.0 mg/kg p.o.): 3.46 ± 0.83 min
Change relative to control group (acquired immobility) ([1]; 1.0 mg/kg p.o.): +0.3%
Acquired Immobility (group mean value in minutes ± standard dev.) ([1]; 2.5 mg/kg p.o.): 2.80 ± 1.02 min
Change relative to control group (acquired immobility) ([1]; 2.5 mg/kg p.o.): −18.8%
Change relative to control group (acquired immobility) ([1]; 7.5 mg/kg p.o., hydrochloride): −47.2% and −41.4%
Change relative to control group (acquired immobility) ([1]; 15 mg/kg p.o.): −44.1%
Change relative to control group (acquired immobility) ([1]; 22.5 mg/kg p.o.): −43.8%

c1ccc2c(c1)CN1CCCC1=N2 [deoxypeganine, 1,2,3,9-tetrahydropyrrolo[2,1-b]quinazoline]
psychomotoric activation in open field, in words (psychomotoric activation): no indication of psychomotoric activation
compensation of cholinergic memory deficits, in words ([2]; 22.5 mg/kg oral): had not yet reached its maximum value
compensation of cholinergic memory deficits, in words ([2]; oral dose of 7.5 mg/kg): not yet statistically significant
inhibition of Type B enzyme (MAO-B), in words (Monoamino oxidase B; in vitro): not significantly inhibited
inhibition at 10 µM (Monoamino oxidase B; read-out: inhibition of monoamino oxidase B): 15 to 20%
IC50 [3]: 1490 nM
effectiveness in forced swimming test, in words ([1]; 2.5 mg/kg): only partially effective
effectiveness in forced swimming test, in words ([1]; dose of 1 mg/kg): not yet effective
dose of maximal action in the Porsolt test ([1]; p.o., comparable to the antidepressant imipramine): 7.5 mg/kg

CN(C)CCCN1c2ccccc2CCc2ccccc21 [imipramine HCl, reference compound]
Change relative to control group (acquired immobility) ([1]; 15 mg/kg p.o., HCl): −56.5% and −58.9%
